The PolyMetriX glass transition set
± gives the standard deviation of the reports.

| glass transition temperature | SMILES |
| --- | --- |
| 135.00 °C | */C=C/c1ccc(*)c(-c2ccc(OCC(CC)CCCC)c3ccccc23)c1 (repeat unit) |
| -1.00 °C | *CCCCCCCOC(=O)c1ccc(C(=O)O*)cc1 (repeat unit) |
| 180.50 °C | *Oc1ccc(C(C)(C)C)cc1Oc1ccc(S(=O)(=O)c2ccc(*)cc2)cc1 (repeat unit) |
| 131.50 °C | *CCCCCOc1cccc(NC(=O)c2cccc(C(=O)Nc3cccc(O*)c3)c2)c1 (repeat unit) |
| 328.00 °C | *c1ccc(Oc2cccc(Oc3ccc(-n4c(=O)c5cc6c(=O)n(*)c(=O)c6cc5c4=O)cc3)c2C#N)cc1 (repeat unit) |
| 44.00 °C | *Oc1ccc(CC(NC(=O)CCc2ccc(OC(=O)CCCCCCCCC(*)=O)cc2)C(=O)OC(C)C)cc1 (repeat unit) |
| 248.00 °C | *c1ccc(Oc2ccc(-c3ccc(Oc4ccc(N5C(=O)c6ccc(Oc7c(C)cc(Cc8cc(C)c(Oc9ccc%10c(c9)C(=O)N(*)C%10=O)c(C)c8)cc7C)cc6C5=O)cc4)cc3)cc2)cc1 (repeat unit) |
| 172.00 °C | *Oc1ccc(C(C)(c2ccccc2)c2ccc(OC(=O)c3ccccc3-c3ccccc3C(*)=O)cc2)cc1 (repeat unit) |
| 202.00 °C | *c1cc(C(c2ccc(OCCN(CC)c3ccc(/C=C/C4=CC(=C(C#N)C#N)CC(C)(C)C4)cc3)c(N3C(=O)c4ccc(Oc5ccc6c(c5)C(=O)N(*)C6=O)cc4C3=O)c2)(C(F)(F)F)C(F)(F)F)ccc1OCCN(CC)c1ccc(/C=C/C2=CC(=C(C#N)C#N)CC(C)(C)C2)cc1 (repeat unit) |
| 195.00 °C | *C1C(=O)OC(=O)C1C1C2CC(C(=O)OC3CCCCC3)C(C2)C1* (repeat unit) |
| 63.00 °C | *CC(*)c1ccccc1COCCc1ccccc1 (repeat unit) |
| 342.00 °C | *c1ccc(-c2cnc3ccc(S(=O)(=O)c4ccc5ncc(*)nc5c4)cc3n2)cc1 (repeat unit) |
| 94.00 °C | *Oc1c(OC)cc(-c2cc(OC)c(OC(=O)CCCCCCCCC(*)=O)c(OC)c2)cc1OC (repeat unit) |
| 260.00 °C | *C(=O)c1ccc(C(=O)c2ccc3c(c2)C(=O)N(c2ccc(C(=O)c4ccc(C(=O)c5ccc(N6C(=O)c7ccc(*)cc7C6=O)cc5)cc4)cc2)C3=O)cc1 (repeat unit) |
| 315.00 °C | *C(=O)Nc1ccc(-c2ccc(NC(=O)c3ccc4c(c3)C(=O)N(c3ccc(Oc5ccc(N6C(=O)c7ccc(*)cc7C6=O)cc5)cc3)C4=O)cc2)cc1 (repeat unit) |
| 235.00 °C | *c1ccc(Oc2ccc(Oc3ccc(-c4cnc5ccc(-c6ccc7nc(*)cnc7c6)cc5n4)cc3)cc2)cc1 (repeat unit) |
| 24.00 °C | *CC(CCCCCCOc1ccc(/N=N/c2ccc(Br)cc2)cc1)COC(=O)CCCCC(=O)O* (repeat unit) |
| 263.00 °C | *C(=O)c1ccc2c(c1)C(=O)N(c1c(C(C)C)cc(Cc3cc(C(C)C)c(N4C(=O)c5ccc(*)cc5C4=O)c(C(C)C)c3)cc1C(C)C)C2=O (repeat unit) |
| 160.00 °C | *Oc1ccc(NC(=O)CCCCCCCC(=O)Nc2ccc(*)cc2)cc1 (repeat unit) |
| 133.00 °C | *CC(O)COc1ccc(C(C)(C)c2ccc(OCC(O)COc3cccc(NC(=O)c4cccc(C(=O)Nc5cccc(O*)c5)c4)c3)cc2)cc1 (repeat unit) |
| -48.00 °C | *ON(C(F)(F)F)C(F)(F)C(*)(F)SC(F)(F)F (repeat unit) |

| SMILES | glass transition temperature |
| --- | --- |
| *CC(*)CC (repeat unit) [Poly(butylene)] | -36.6 ± 12 °C |
| *CCC(c1ccccc1)[Si](*)(C)C (repeat unit) | 27.00 °C |
| *CCN(*)C(=O)c1c(F)ccc(F)c1F (repeat unit) | 124.00 °C |
| *CC(*)C(=O)N1CCOCC1 (repeat unit) | 150.00 °C |
| *CC/C=C(/*)Cl (repeat unit) [Polychloroprene ] | -48 ± 18 °C |
